Data on 29 molecules can be found in patent US20240174696A1, “2,8-DIAZASPIRO[4.5]DECANE COMPOUNDS” (Genentech, Inc., priority 2021, published 2024).

Counter-ions that a name gives are not always drawn.

The target of assay [1] is Human LATS2 catalytic domain (Homo sapiens (Human), UniProt Q9NRM7). Briefly: LATS2 High ATP HTRF Assay. The conditions noted are these: no asterisk: LATS2 High ATP HTRF Assay, 5000 μM ATP, 0.05 nM LATS2. In kind it is biochemical. As to the method: Human LATS2 catalytic domain which contains the amino acids G553-V1088 (accession NP_055387) was purified in-house. The LATS2 catalytic domain was co-purified with Mob1b (accession NP_775739). The LATS2 biochemical HTRF assay was performed using the HTRF KinEASE-STK S1 Kit (Cisbio, Cat #62ST1PEC), following the protocol from the manufacturer. Compounds were dispensed by the Echo Liquid Handler (Labcyte) into a white 384-well plate (PerkinElmer, Cat #6008289). 3 uL of 2×LATS2 enzyme solution was added to the compounds, following by a 10 minute incubation at room temperature. Then, 2×ATP and STK S1 peptide solution was added to initiate the one hour enzyme reaction at room temperature. The final condition of the reaction was 0.2 nM LATS2, 50 μM ATP, 0.5 μM STK S1 peptide in 50 mM HEPES pH7.2, 10 mM MgCl2, 0.1% BGG, 0.005% Brij-35, 1 mM DTT. The reaction was quenched by adding 6 uL of the detection mixture which contained Streptavidin XL665 and STK Antibody-Cryptate (Cisbio), incubate for 1 hour at room temperature. The HTRF (665 nm/620 nm) signal was read on the Envision plater reader (PerkinElmer). The IC50 values were determined by fitting the % inhibition with a nonlinear four-parameter logistical equation. The Ki values were calculated using the Cheng-Prusoff equation for a competitive inhibitor, IC50═Ki (1+S/Km)+M [E] with ATP Km for LATS2=105 μM.
Chain of Human LATS2 catalytic domain (Q9NRM7 553-1088): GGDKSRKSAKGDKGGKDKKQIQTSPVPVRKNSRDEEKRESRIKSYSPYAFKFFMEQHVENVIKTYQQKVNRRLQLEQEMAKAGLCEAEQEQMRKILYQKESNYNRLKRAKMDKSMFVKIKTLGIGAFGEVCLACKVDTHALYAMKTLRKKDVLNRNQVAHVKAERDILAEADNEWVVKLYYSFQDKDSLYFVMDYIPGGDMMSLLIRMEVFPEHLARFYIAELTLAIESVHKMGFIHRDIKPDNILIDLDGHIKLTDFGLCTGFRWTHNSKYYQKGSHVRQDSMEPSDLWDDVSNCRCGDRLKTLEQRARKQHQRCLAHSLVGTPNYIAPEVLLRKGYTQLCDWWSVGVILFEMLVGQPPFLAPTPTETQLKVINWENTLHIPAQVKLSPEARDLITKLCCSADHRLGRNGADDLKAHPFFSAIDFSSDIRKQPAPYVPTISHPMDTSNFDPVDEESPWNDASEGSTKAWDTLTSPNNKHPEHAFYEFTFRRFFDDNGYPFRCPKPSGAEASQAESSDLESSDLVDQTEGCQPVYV
Chain of Human LATS2 catalytic domain (Q7L9L4 whole entry partner, the tested form may be a part): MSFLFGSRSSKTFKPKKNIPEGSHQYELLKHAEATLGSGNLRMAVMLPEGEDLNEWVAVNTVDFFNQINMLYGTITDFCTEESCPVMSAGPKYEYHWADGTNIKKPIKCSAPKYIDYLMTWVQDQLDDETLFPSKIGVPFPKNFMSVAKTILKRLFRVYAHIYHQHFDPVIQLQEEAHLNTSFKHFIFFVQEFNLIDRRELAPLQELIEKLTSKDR
The LATS2 high ATP HTRF assay was performed using the same protocol as the Standard LATS2 HTRF assay. The final condition of the reaction was 0.05 nM LATS2, 5000 μM ATP, 0.5 μM STK S1 peptide in 50 mM HEPES pH7.2, 10 mM MgCl2, 0.1% BGG, 0.005% Brij-35, 1 mM DTT and the 2 hours enzyme reaction at room temperature.

In assay [2] the test system is TAZ nuclear translocation in SW1990 cells. Briefly: TAZ Nuclear Translocation Assay. The assay is classed as cell-based. The conditions noted are these: Homo sapiens, 4 hours. As to the method:
The SW1990 cells (ATCC, CRL2172) were seeded at 5000 cells/well by adding 30 μL/well of cells in RPMI1640, 10% FBS, 2 mM glutamine culture media to a 384-well plate (Greiner 781091). The cells were incubated overnight at 37° C. Next day, test compounds were directly added to the cells using the Echo Liquid Handler (Labcyte), incubate at 37° C. for 4 hours. The cells were fixed with 4% paraformaldehyde and incubate for 20 minutes at room temperature. After washing three times with 100 μL PBS, 0.5% Triton X-100 was added to permeabilize the cells, incubate at room temperature for 5 minutes, following by washing the cells three times with PBS. 3% BSA was added to the cells, incubate for one hour at room temperature, following by washing three times with PBS. 50 μL of 1:750 diluted rabbit Anti-TAZ (Cell signaling D316D) in 3% BSA was added to the cells, incubate at 4° C. overnight. Next day, after washing the cells three times with PBS, 50 μL of 1:1250 diluted donkey anti-Rabbit, Alexa Fluor 488 (Invitrogen A21206) and 1:6250 diluted Hoechst 33342 (Molecular Probes H-21492) in 3% BSA was added to the cells, incubate at room temperature for one hour. The cells were washed three times with PBS, then image with the CellInsight CX7 High-Content Imager. The ratio of nuclear mean fluorescence intensity and cytoplasmic ring region mean fluorescence intensity was calculated. The % inhibition was normalized using DMSO as 0% inhibition and an inhibitor control as 100% inhibition. The EC50 values were calculated by fitting the % inhibition with a nonlinear four-parameter logistical equation.

On to `c1cc(-c2nc(N3CCC4(CC3)CCN(C3CCOC3)C4)c3ccncc3n2)ccn1` (racemic) [Compound 111, 2-(pyridin-4-yl)-4-(2-(tetrahydrofuran-3-yl)-2,8-diazaspiro[4.5]decan-8-yl)pyrido[3,4-d]pyrimidine], for which the Ki (in general, the dissociation constant of the complex between target and ligand, obtained from inhibition or displacement) in assay [1] came to 0.14 nM. For the same molecule, in assay [2], the response was half-maximal at 630 nM (EC50). On the same counts, the results for `CN1CC2(CCN(c3nc(-c4ccncc4)nc4cnccc34)CC2)CC1CO` (racemic) [Example 212, (2-methyl-8-(2-(pyridin-4-yl)pyrido[3,4-d]pyrimidin-4-yl)-2,8-diazaspiro[4.5]decan-3-yl)methanol] are 0.41 nM and 2500 nM. `FCC1CC2(CCN(c3nc(-c4ccncc4)nc4cnccc34)CC2)CN1` (racemic) [Example 216, 4-(3-(fluoromethyl)-2,8-diazaspiro[4.5]decan-8-yl)-2-(pyridin-4-yl)pyrido[3,4-d]pyrimidine] showed a Ki in assay [1] of 0.13 nM. Besides, a half-maximal response in assay [2] (EC50) required 490 nM. Regarding `COCC1CC2(CCN(c3nc(-c4ccncc4)nc4cnccc34)CC2)CN1C` (racemic) [Example 217, 4-(3-(methoxymethyl)-2-methyl-2,8-diazaspiro[4.5]decan-8-yl)-2-(pyridin-4-yl)pyrido[3,4-d]pyrimidine], the Ki in assay [1] amounted to 0.35 nM. For the same molecule, the EC50 (usually the concentration needed to bring the measured effect to its halfway point) in assay [2] was 780 nM. On the same counts, the results for `c1cc(-c2nc(N3CCC4(CC3)CC3COCCN3C4)c3ccncc3n2)ccn1` (racemic) [Example 218, 1-(2-(pyridin-4-yl)pyrido[3,4-d]pyrimidin-4-yl)hexahydrospiro[piperidine-4,7′-pyrrolo[2,1-c][1,4]oxazine]] are 4.3 nM and 6800 nM. On the same counts, the results for `C[C@H](CO)N1CCC2(CCN(c3nc(-c4ccncc4)nc4cnccc34)CC2)C1` (single isomer, unassigned) [Compound 103] are 0.58 nM and 740 nM. With `C[C@@H](CO)N1CCC2(CCN(c3nc(-c4ccncc4)nc4cnccc34)CC2)C1` (single isomer, unassigned) [Compound 104], the Ki in assay [1] turned out to be 0.53 nM. In addition, the EC50 in assay [2] was 450 nM.

In turn, `Cc1n[nH]cc1-c1nc(N2CCC3(CCN(C[C@H](C)O)C3)CC2)c2ccncc2n1` (single isomer, unassigned) [Compound 144] displayed an inhibitory constant (Ki) in assay [1] of 0.086 nM. The EC50 in assay [2] was determined as 690 nM.

Molecule `Cc1n[nH]cc1-c1nc(N2CCC3(CCN(C[C@@H](C)O)C3)CC2)c2ccncc2n1` (single isomer, unassigned) [Compound 145] showed a Ki in assay [1] of 0.039 nM. This molecule also had an EC50 in assay [2] of 940 nM. On the same counts, the results for `O[C@H]1CC[C@@H](N2CCC3(CCN(c4nc(-c5ccncc5)nc5cnccc45)CC3)C2)C1` (single isomer, unassigned) [Compound 169] are 0.45 nM and 570 nM. `O[C@@H]1CC[C@H](N2CCC3(CCN(c4nc(-c5ccncc5)nc5cnccc45)CC3)C2)C1` (single isomer, unassigned) [Compound 170]: in assay [1], the Ki amounted to 0.29 nM. The EC50 in assay [2] was determined as 380 nM.

In assay [1], `O[C@@H]1COC[C@H]1N1CCC2(CCN(c3nc(-c4ccncc4)nc4cnccc34)CC2)C1` (single isomer, unassigned) [Compound 176] registered a Ki of 0.93 nM. Further, the midpoint of the response in assay [2], the EC50, lay at 1790 nM. Consider `O[C@H]1COC[C@@H]1N1CCC2(CCN(c3nc(-c4ccncc4)nc4cnccc34)CC2)C1` (single isomer, unassigned) [Compound 177], for which the Ki in assay [1] was determined as 0.39 nM. In assay [2], the half-maximal effective concentration (EC50) was found to be 2500 nM. On the same counts, the results for `O[C@@H]1CC[C@H]1N1CCC2(CCN(c3nc(-c4ccncc4)nc4cnccc34)CC2)C1` (single isomer, unassigned) [Compound 179] are 0.1 nM and 740 nM. On the same counts, the results for `O[C@@H]1CC[C@@H]1N1CCC2(CCN(c3nc(-c4ccncc4)nc4cnccc34)CC2)C1` (single isomer, unassigned) [Compound 180] are 1.38 nM and 1300 nM. In assay [1], `O[C@H]1CC[C@H]1N1CCC2(CCN(c3nc(-c4ccncc4)nc4cnccc34)CC2)C1` (single isomer, unassigned) [Compound 181] returned an inhibition constant Ki of 1.87 nM. This molecule also registered a concentration giving a half-maximal response (EC50) in assay [2] of 1900 nM. For the molecule `Cc1n[nH]cc1-c1nc(N2CCC3(CC2)CCN([C@@H]2CCC[C@H]2O)C3)c2ccncc2n1` (single isomer, unassigned) [Compound 184], affinity in assay [1] was put at a Ki of 0.037 nM. The molecule also gave a concentration for a half-maximal effect (EC50) in assay [2] of 1400 nM. On the same counts, the results for `Cc1[nH]ncc1-c1nc(N2CCC3(CC2)CCN([C@H]2CCC[C@@H]2O)C3)c2ccncc2n1` (single isomer, unassigned) [Compound 185] are 0.047 nM and 860 nM. In turn, `COC[C@H]1CC2(CCN(c3nc(-c4ccncc4)nc4cnccc34)CC2)CN1` (single isomer, unassigned) [Example 221] displayed a Ki in assay [1] of 0.32 nM. The molecule also displayed a concentration for a half-maximal effect (EC50) in assay [2] of 230 nM. The molecule `COC[C@@H]1CC2(CCN(c3nc(-c4ccncc4)nc4cnccc34)CC2)CN1` (single isomer, unassigned) [Example 222] yielded an inhibitory constant (Ki) in assay [1] of 0.1 nM. The same molecule registered an EC50 in assay [2] of 340 nM. Regarding `Cc1[nH]ncc1-c1nc(N2CCC3(CC2)CCN([C@@H]2CC[C@H]2O)C3)c2ccncc2n1` (single isomer, unassigned) [Example 228], the Ki in assay [1] was found to be 0.067 nM. The half-maximal effective concentration (EC50) in assay [2] came out at 2700 nM.

In assay [1], `Cc1[nH]ncc1-c1nc(N2CCC3(CC2)CCN([C@H]2CC[C@@H]2O)C3)c2ccncc2n1` (single isomer, unassigned) [Example 229] came in with a Ki of 0.063 nM. The same molecule gave a 50% effective concentration (EC50) in assay [2] of 2100 nM.

`Cc1[nH]ncc1-c1nc(N2CCC3(CC2)CCN([C@@H]2CC[C@@H]2O)C3)c2ccncc2n1` (single isomer, unassigned) [Example 230]: in assay [1], the Ki is 0.043 nM. In assay [2], this molecule showed a concentration for a half-maximal effect (EC50) of 1000 nM. On the same counts, the results for `Cc1[nH]ncc1-c1nc(N2CCC3(CC2)CCN([C@H]2CC[C@H]2O)C3)c2ccncc2n1` (single isomer, unassigned) [Example 231] are 0.11 nM and 900 nM. Turning to `COc1cncc2nc(-c3ccncc3)nc(N3CCC4(CCN(C)C4)CC3)c12` [Compound 252, 5-Methoxy-4-(2-methyl-2,8-diazaspiro[4.5]decan-8-yl)-2-(pyridin-4-yl)pyrido[3,4-d]pyrimidine formate], the EC50 in assay [2] worked out at 130 nM.

Turning to `Cc1nn(C)cc1-c1nc(N2CCC3(CC2)CCN(C2CCCC2)C3)c2ccncc2n1` [Example 208, 4-(2-cyclopentyl-2,8-diazaspiro[4.5]decan-8-yl)-2-(1,3-dimethyl-1H-pyrazol-4-yl)pyrido[3,4-d]pyrimidine], the inhibition constant Ki in assay [1] is 60 nM. That is a double-digit nanomolar value.

With `CN1CCC2(CCN(c3nc(-c4ccncc4)nc4cnc(C(F)(F)F)cc34)CC2)C1` [Example 209, 4-(2-methyl-2,8-diazaspiro[4.5]decan-8-yl)-2-(pyridin-4-yl)-6-(trifluoromethyl)pyrido[3,4-d]pyrimidine], the affinity in assay [1], expressed as Ki, was 45 nM. This Ki and that of the molecule before are within 1.5-fold of each other. Regarding `Cc1n[nH]cc1-c1nc(N2CCC3(CCN(CCS(=O)(=O)N(C)C)C3)CC2)c2ccncc2n1` [Example 210, N,N-dimethyl-2-(8-(2-(3-methyl-1H-pyrazol-4-yl)pyrido[3,4-d]pyrimidin-4-yl)-2,8-diazaspiro[4.5]decan-2-yl)ethanesulfonamide], affinity in assay [1] was put at a Ki of 0.25 nM.

Consider `Cc1n[nH]cc1-c1nc(N2CCC3(CCNC3)CC2)c2ccnc(O)c2n1` [Example 237, 2-(3-methyl-1H-pyrazol-4-yl)-4-(2,8-diazaspiro[4.5]decan-8-yl)pyrido[3,4-d]pyrimidin-8-ol], for which the inhibition constant (Ki) in assay [1] is 19 nM.
